From patent US4738954A, “Novel N^6 -substituted-5'-oxidized adenosine analogs” (Warner-Lambert Company, priority 1985, dated 1988) come the findings set out here.

Assay [1] relates to platelets (collagen-induced aggregation). Description: Antithrombocyte aggregation test in vitro (ATA-8), collagen-induced, platelet rich plasma. The assay is classed as cell-based, human (Community Research Clinic volunteers). Conditions: Homo sapiens. As to the method: (§1) ANTITHROMBOCYTE AGGREGATION TEST-IN VITRO (ATA-8)
Source and Preparation of Platelet Suspensions
Blood is collected from Community Research Clinic volunteers who have not ingested aspirin or other non-steroidol antiinflammatory drugs within the preceeding two weeks and have not eaten within the nine hours before blood draw. Blood is taken in 4.5 ml portions in Vacutainer No. 6462S silicone-coated tubes or equivalent containing 0.5 ml of 3.8% trisodium citrate. Usually six or eight portions of 4.5 ml are drawn from each volunteer. The blood collected from three or four volunteers is pooled prior to centrifugation. […] The platelet count of the PRP is determined with a Coulter Thromobocounter. […]
Platelet-rich plasma adjusted to 250,000 platelets per microliter is distributed in 0.36 ml aliquots into silicone-coated cuvettes of 0.312 inch diameter. […] Extent of aggregation, using ADP stimulus, or rate of aggregation, using collagen stimulus, is determined using the Payton Scientific Dual Channel Aggregation Module, Model 300B. Appropriate concentrations of ADP or collagen are determined by an initial brief titration. […]
The major slope (that is, the slope of the first straight line portion) of the collagen-induced aggregation curve for each drug concentration is determined and compared to the slope of the curve for control aggregations. […]

Assay [2] has the same test system. Put plainly: Antithrombocyte aggregation test in vitro (ATA-8), collagen-induced, whole blood. The assay is classed as cell-based, human (Community Research Clinic volunteers). Conditions: Homo sapiens, Platelet. As to the method:
as §1
Blood is collected from Community Research Clinic volunteers who have not ingested aspirin or other non-steroidol antiinflammatory drugs within the preceeding two weeks and have not eaten within the nine hours before blood draw. Blood is taken in 4.5 ml portions in Vacutainer No. 6462S silicone-coated tubes or equivalent containing 0.5 ml of 3.8% trisodium citrate. Usually six or eight portions of 4.5 ml are drawn from each volunteer. The blood collected from three or four volunteers is pooled prior to centrifugation. […]
Addition of drug solution or saline (0.02 ml) is followed in 5 min by addition of aggregating agent (ADP or collagen suspension, 0.02 ml). Extent of aggregation, using ADP stimulus, or rate of aggregation, using collagen stimulus, is determined using the Payton Scientific Dual Channel Aggregation Module, Model 300B. Appropriate concentrations of ADP or collagen are determined by an initial brief titration.
The major slope (that is, the slope of the first straight line portion) of the collagen-induced aggregation curve for each drug concentration is determined and compared to the slope of the curve for control aggregations. Values for drug test aggregations are expressed as "precent of control" and are plotted versus drug concentration on semilog paper. […]

One may read the IC50 as the midpoint of a concentration-inhibition curve. Low readings indicate greater potency, high ones weaker potency. With `CCNC(=O)[C@H]1O[C@@H](n2cnc3c(N[C@H](C)Cc4ccccc4)ncnc32)[C@H](O)[C@@H]1O` [Example 1, (R)-N-6-[(2-phenyl-1-methyl)ethyl]-adenosine-5'-ethylcarboxamide], the half-maximal inhibitory concentration (IC50) in assay [1] turned out to be 200 nM; in assay [2], 50 nM.
